Like-named read-outs stand apart in the source and are kept apart here.
Molecular target: T1, human Nav1.8/β1 (Homo sapiens, UniProt Q9Y5Y9)
T1 construct: host or cells: HEK293
Test: Compound Profiling Human NaV1.8/β1 Cell Line—Sophion QPatch II Assay (automated patch clamp, stably transfected HEK293 cells)
Assay type: cell-based
Description: Compounds were tested on recombinant human Nav1.8/β1 stably transfected HEK293 (Eurofins, CYL3025, St. Charles, MO) cells using the QPatch II system (Sophion Bioscience A/S, Ballerup—Denmark), an automated patch clamp device. Cells were cultured at 37° C./5% CO2 in DMEM/F-12 supplemented with 10% fetal bovine serum, 1× Non-Essential Amino Acids, and selection antibiotics (0.625 μg/mL Puromycin, 400 μg/mL Geneticin, and 100 μg/mL Hygromycin). One or two days prior to recording, cells were moved to a lower temperature 30° C./5% CO2 incubator to increase surface expression of the channels. On the day of the recordings, cells in culture dishes were washed twice with Ca^2+—Mg^2+ free DPBS and treated with Detachin (Genlantis, San Diego) for 3 minutes and then resuspended in Serum Free Medium (EX-CELL® ACF CHO Medium for Cell Culture (Sigma-Aldrich) supplemented with 0.04 mg/mL soybean trypsin Inhibitor and 25 mM HEPES (all components supplied by Sigma-Aldrich, St. Louis, MO) and allowed to recover for a minimum of 20 minutes in the onboard QStirrer. All experiments were performed at ambient temperature. Intracellular solution contained (mM): CsCl, 50; CsF, 90; MgCl2, 2; EGTA, 5; HEPES, 10; pH adjusted to 7.2 with CsOH. Extracellular solution contained (mM): NaCl, 137; KCl, 4; CaCl2), 3.8; MgCl2, 1; HEPES, 10; Glucose, 10; pH adjusted to 7.4 with NaOH. [LEFT OUT].
Compounds were tested in an interleaved manner across two cohorts of wells to develop an aggregate 8-point concentration response curve. Final concentrations include 0.1% DMSO and 0.03% pluronic Acid. In general, the concentration range spans a range from 0.01-300 nM. Compounds were diluted 1:10 with extracellular solution within their respective cohort. DMSO (0.1% by volume) served as a vehicle control to ascertain assay performance.
(§1) Whole cell patch clamp recordings were conducted according to Sophion standard procedure for QPatch II®. Cells were held at a holding potential of −120 mV. A depolarizing step to 10 mV for 30 ms was applied to elicit inward Na^+ currents. Inter-sweep interval was 15 sec. Following establishment of the whole-cell configuration in extracellular solution, cells were washed twice in extracellular solution containing 0.1% DMSO and 0.03% pluronic acid to stabilize the baseline current. Compounds were then applied by the QPatch II system into each well in an ascending manner within cohort and the current was recorded for five minutes for each concentration. Percent of current remaining was determined by taking the average of the last 5 sweeps within each concentration and normalizing to the latest pre-compound saline period. The potency (IC50) values of the compounds were only assessed against resting state block. Wells whose initial sodium current magnitude were below 2 nA or whole cell resistance fell below 100 MΩ were excluded from analysis.
as §1, with “MO” for “MΩ”, “analysis. […]” for “analysis.”

[1] = P1, resting state block, Nav1.8/β1 HEK293 cells, holding potential −120 mV, fourth set of compounds, read-out: P1 (IC50, resting state block)
[2] = P1, resting state block, Nav1.8/β1 HEK293 cells, holding potential −120 mV, first set of compounds, read-out: P1 (IC50, resting state block)

T1 sequence (Q9Y5Y9 whole entry): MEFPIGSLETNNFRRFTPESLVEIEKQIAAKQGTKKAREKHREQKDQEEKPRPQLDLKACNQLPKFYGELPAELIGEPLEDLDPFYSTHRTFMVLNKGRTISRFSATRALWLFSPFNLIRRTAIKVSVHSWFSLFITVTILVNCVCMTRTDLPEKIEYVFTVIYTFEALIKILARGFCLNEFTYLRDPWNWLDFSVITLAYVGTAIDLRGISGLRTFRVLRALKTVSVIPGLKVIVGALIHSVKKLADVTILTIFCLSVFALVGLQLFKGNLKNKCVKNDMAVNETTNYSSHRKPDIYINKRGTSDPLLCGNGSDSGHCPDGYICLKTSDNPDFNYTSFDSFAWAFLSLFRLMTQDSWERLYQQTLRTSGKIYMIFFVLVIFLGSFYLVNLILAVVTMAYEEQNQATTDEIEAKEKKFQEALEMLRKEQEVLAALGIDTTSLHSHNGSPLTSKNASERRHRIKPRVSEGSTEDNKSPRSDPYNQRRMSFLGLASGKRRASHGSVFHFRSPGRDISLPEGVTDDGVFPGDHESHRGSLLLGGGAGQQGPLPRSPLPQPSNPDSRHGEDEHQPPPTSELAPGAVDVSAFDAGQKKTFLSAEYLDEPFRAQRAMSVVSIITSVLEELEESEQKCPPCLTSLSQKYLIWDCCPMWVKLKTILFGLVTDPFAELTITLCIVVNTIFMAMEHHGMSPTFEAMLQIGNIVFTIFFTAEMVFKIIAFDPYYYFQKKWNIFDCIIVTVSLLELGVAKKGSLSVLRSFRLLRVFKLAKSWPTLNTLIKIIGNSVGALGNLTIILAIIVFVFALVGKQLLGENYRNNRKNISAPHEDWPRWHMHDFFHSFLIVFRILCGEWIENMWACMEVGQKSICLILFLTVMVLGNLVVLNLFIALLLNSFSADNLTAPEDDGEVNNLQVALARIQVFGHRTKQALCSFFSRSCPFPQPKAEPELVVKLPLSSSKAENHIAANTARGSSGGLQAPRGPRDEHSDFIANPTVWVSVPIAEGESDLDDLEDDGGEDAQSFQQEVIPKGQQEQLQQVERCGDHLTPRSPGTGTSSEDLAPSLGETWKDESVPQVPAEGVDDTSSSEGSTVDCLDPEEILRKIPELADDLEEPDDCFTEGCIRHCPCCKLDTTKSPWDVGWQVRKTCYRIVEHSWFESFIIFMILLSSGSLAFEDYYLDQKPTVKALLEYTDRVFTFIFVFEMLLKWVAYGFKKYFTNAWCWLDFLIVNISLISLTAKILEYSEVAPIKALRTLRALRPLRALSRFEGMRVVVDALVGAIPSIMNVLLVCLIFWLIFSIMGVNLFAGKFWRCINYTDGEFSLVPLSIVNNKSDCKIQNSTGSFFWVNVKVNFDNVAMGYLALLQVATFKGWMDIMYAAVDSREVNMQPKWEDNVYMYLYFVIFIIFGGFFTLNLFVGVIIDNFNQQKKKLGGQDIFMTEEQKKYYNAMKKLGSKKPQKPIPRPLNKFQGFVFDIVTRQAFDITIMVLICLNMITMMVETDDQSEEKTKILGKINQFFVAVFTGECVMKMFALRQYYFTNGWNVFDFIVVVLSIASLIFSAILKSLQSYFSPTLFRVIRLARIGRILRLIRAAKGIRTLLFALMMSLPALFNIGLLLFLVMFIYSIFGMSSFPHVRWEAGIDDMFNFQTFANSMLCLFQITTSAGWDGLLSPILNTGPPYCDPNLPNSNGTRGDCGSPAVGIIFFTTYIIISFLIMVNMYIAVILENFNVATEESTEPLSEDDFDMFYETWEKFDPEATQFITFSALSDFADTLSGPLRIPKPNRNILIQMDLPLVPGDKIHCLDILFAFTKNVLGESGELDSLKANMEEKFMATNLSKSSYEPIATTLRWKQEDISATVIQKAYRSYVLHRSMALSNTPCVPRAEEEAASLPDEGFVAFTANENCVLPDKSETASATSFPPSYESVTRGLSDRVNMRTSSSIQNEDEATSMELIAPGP
T1 sequence (Q07699 19-218 partner): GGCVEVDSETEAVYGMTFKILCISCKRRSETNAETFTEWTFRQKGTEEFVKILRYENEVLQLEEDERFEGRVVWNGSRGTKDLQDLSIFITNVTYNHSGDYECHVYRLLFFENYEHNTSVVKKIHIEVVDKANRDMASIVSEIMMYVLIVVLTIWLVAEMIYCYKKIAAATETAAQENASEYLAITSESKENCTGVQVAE

Row | IC50 [nM] | Structure (SMILES) | other results
1 | – | Cc1nc(F)ccc1Oc1ncc(C(F)(F)F)c(C)c1C(=O)Nc1cccc(S2(=O)=NC(=O)CC2)c1 (single isomer, unassigned) [Example 30D, 2-((6-fluoro-2-methylpyridin-3-yl)oxy)-4-methyl-N-(3-(1-oxido-3-oxo-4,5-dihydro-3H-1l6-isothiazol-1-yl)phenyl)-5-(trifluoromethyl)nicotinamide] | IC50 [1]: > 200 nM
2 | – | Cc1nc(F)ccc1Oc1ncc(C(F)(F)F)c(C)c1C(=O)Nc1cccc(S2(=O)=NC(=O)CC2)c1 (single isomer, unassigned) [Example 31D, 2-((6-fluoro-2-methylpyridin-3-yl)oxy)-4-methyl-N-(3-(1-oxido-3-oxo-4,5-dihydro-3H-1l6-isothiazol-1-yl)phenyl)-5-(trifluoromethyl)nicotinamide] | IC50 [1]: 50 to 100 nM
3 | 5 to 50 | COc1cc(C#N)ccc1Oc1cc(C(F)(F)F)c(Cl)cc1C(=O)Nc1ccc(F)c([S@](C)(=N)=O)c1 [Example 8A, (R)-5-chloro-2-(4-cyano-2-methoxyphenoxy)-N-(4-fluoro-3-(S-methylsulfonimidoyl)phenyl)-4-(trifluoromethyl)benzamide] | –
4 | – | COc1cc(Br)ccc1Oc1cc(C(F)(F)F)c(Cl)cc1C(=O)Nc1ccnc([S@](C)(=N)=O)c1 [Example 11A, (R)-2-(4-bromo-2-methoxyphenoxy)-5-chloro-N-(2-(S-methylsulfonimidoyl)pyridin-4-yl)-4-(trifluoromethyl)benzamide] | IC50 [2]: < 5 nM
5 | 5 to 50 | COc1cc(C#N)ccc1Oc1cc(C(F)(F)F)c(Cl)cc1C(=O)Nc1ccnc([S@](C)(=N)=O)c1 [Example 12A, (R)-5-chloro-2-(4-cyano-2-methoxyphenoxy)-N-(2-(S-methylsulfonimidoyl)pyridin-4-yl)-4-(trifluoromethyl)benzamide] | –
6 | – | COc1cc(C#N)ccc1Oc1cc(C(F)(F)F)c(Cl)cc1C(=O)Nc1ccnc([S@@](C)(=N)=O)c1 [Example 15A] | IC50 [2]: 5 to 50 nM
7 | – | COc1cc(Br)ccc1Oc1cc(C(F)(F)F)c(Cl)cc1C(=O)Nc1ccnc([S@@](C)(=N)=O)c1 [Example 16A] | IC50 [2]: < 5 nM
8 | 5 to 50 | Cc1nc(F)ccc1Oc1cc(C(F)(F)F)c(Cl)cc1C(=O)Nc1ccnc(S(C)(=O)=O)c1 [Example 17A] | –
9 | – | Cc1nc(F)ccc1Oc1cc(C(F)(F)F)ccc1C(=O)Nc1ccnc([S@@](C)(=N)=O)c1 [Example 18A] | IC50 [2]: > 200 nM
10 | – | Cc1cc(F)ncc1Oc1cc(C(F)(F)F)c(Cl)cc1C(=O)Nc1ccnc([S@@](C)(=N)=O)c1 [Example 19A] | IC50 [2]: > 200 nM
11 | – | Cc1cc(F)ncc1Oc1cc(C(F)(F)F)c(Cl)cc1C(=O)Nc1ccnc([S@](C)(=N)=O)c1 [Example 20A] | IC50 [2]: 100 to 200 nM
12 | – | Cc1cc(F)ncc1Oc1cc(C(F)(F)F)c(Cl)cc1C(=O)Nc1cccc([S@@](C)(=N)=O)c1 [Example 21A] | IC50 [2]: 100 to 200 nM
13 | – | Cc1cc(F)ncc1Oc1cc(C(F)(F)F)c(Cl)cc1C(=O)Nc1cccc([S@](C)(=N)=O)c1 [Example 22A] | IC50 [2]: 50 to 100 nM
14 | – | Cc1cc(F)ncc1Oc1cc(C(F)(F)F)c(Cl)cc1C(=O)Nc1ccc(F)c([S@@](C)(=N)=O)c1 [Example 23A] | IC50 [2]: > 200 nM
15 | 100 to 200 | Cc1cc(F)ncc1Oc1cc(C(F)(F)F)c(Cl)cc1C(=O)Nc1ccc(F)c([S@](C)(=N)=O)c1 [Example 24A] | –
16 | > 200 | COc1cc(C#N)ccc1Oc1cc(C(F)(F)F)c(Cl)cc1C(=O)Nc1cccc([S@@](C)(=N)=O)c1 [Example 25A] | –
17 | > 200 | COc1cc(C#N)ccc1Oc1cc(C(F)(F)F)c(Cl)cc1C(=O)Nc1ccc(F)c([S@@](C)(=N)=O)c1 [Example 26A] | –
18 | > 200 | COc1cc(C#N)ccc1Oc1cc(C(F)(F)F)c(Cl)cc1C(=O)Nc1cccc([S@](C)(=N)=O)c1 [Example 27A] | –
19 | > 200 | Cc1nc(F)ccc1Oc1cc(C(F)(F)F)ccc1C(=O)Nc1ccnc([S@](C)(=N)=O)c1 [Example 28A] | –
20 | > 200 | Cc1nc(F)ccc1Oc1cc(C(F)(F)F)ccc1C(=O)Nc1ccc(F)c([S@@](C)(=N)=O)c1 [Example 29A] | –

Row | IC50 [nM] | Structure (SMILES) | other results
21 | 100 to 200 | Cc1nc(F)ccc1Oc1cc(C(F)(F)F)ccc1C(=O)Nc1ccc(F)c([S@](C)(=N)=O)c1 [Example 30A] | –
22 | 100 to 200 | Cc1nc(F)ccc1Oc1cc(C(F)(F)F)ccc1C(=O)Nc1cccc([S@@](C)(=N)=O)c1 [Example 31A] | –
23 | 5 to 50 | Cc1nc(F)ccc1Oc1ccc(C(F)(F)F)c(Cl)c1C(=O)Nc1ccnc([S@](C)(=N)=O)c1 [Example 32A] | –
24 | 5 to 50 | CCC(N)(CC)CCS(=N)(=O)c1cccc(NC(=O)c2c(Oc3ccc(F)nc3C)ncc(C(F)(F)F)c2C)c1 (stereo not drawn) [Example 41C, N-(3-(3-amino-3-ethylpentylsulfonimidoyl)phenyl)-2-((6-fluoro-2-methylpyridin-3-yl)oxy)-4-methyl-5-(trifluoromethyl)nicotinamide] | –
25 | > 200 | Cc1nc(F)ccc1Oc1ncc(C(F)(F)F)c(C)c1C(=O)Nc1cccc(S(=N)(=O)CCC(C)(C)O)c1 (stereo not drawn) [Example 42C, 2-((6-fluoro-2-methylpyridin-3-yl)oxy)-N-(3-(3-hydroxy-3-methylbutylsulfonimidoyl)phenyl)-4-methyl-5-(trifluoromethyl)nicotinamide] | –
26 | > 200 | Cc1nc(F)ccc1Oc1ncc(C(F)(F)F)c(C)c1C(=O)N(C)c1cccc([S@](C)(=N)=O)c1 [Example 46C, (R)-2-((6-fluoro-2-methylpyridin-3-yl)oxy)-N,4-dimethyl-N-(3-(S-methylsulfonimidoyl)phenyl)-5-(trifluoromethyl)nicotinamide] | –
27 | > 200 | Cc1nc(F)ccc1Oc1ncc(C(F)(F)F)c(C)c1C(=O)N(C)c1cccc([S@@](C)(=N)=O)c1 [Example 47C, (S)-2-((6-fluoro-2-methylpyridin-3-yl)oxy)-N,4-dimethyl-N-(3-(S-methylsulfonimidoyl)phenyl)-5-(trifluoromethyl)nicotinamide] | –
28 | > 200 | Cc1nc(F)ccc1Oc1ncc(C(F)(F)F)c(C)c1C(=O)Nc1cc(S(=N)(=O)CCCO)ccn1 (stereo not drawn) [Example 49C] | –
29 | 5 to 50 | CNC(C)(C)CCS(=N)(=O)c1cccc(NC(=O)c2c(Oc3ccc(F)nc3C)ncc(C(F)(F)F)c2C)c1 (stereo not drawn) [Example 50C] | –
30 | 5 to 50 | CNC(C)(C)CS(=N)(=O)c1cccc(NC(=O)c2c(Oc3ccc(F)nc3C)ncc(C(F)(F)F)c2C)c1 (stereo not drawn) [Example 51C] | –
31 | 5 to 50 | Cc1nc(F)ccc1Oc1ncc(C(F)(F)F)c(C)c1C(=O)Nc1cccc(S(=N)(=O)CCC(C)(C)N)c1 (stereo not drawn) [Example 52C] | –
32 | 5 to 50 | Cc1nc(F)ccc1Oc1ncc(C(F)(F)F)c(C)c1C(=O)Nc1cccc(S(=N)(=O)CC(C)(C)N)c1 (stereo not drawn) [Example 53C] | –
33 | 50 to 100 | Cc1cc(F)ccc1Oc1ncc(C(F)(F)F)c(C)c1C(=O)Nc1cccc(S(=N)(=O)CCCO)c1 (stereo not drawn) [Example 54C] | –
34 | 5 to 50 | Cc1cc(F)ccc1Oc1ncc(C(F)(F)F)c(C)c1C(=O)Nc1cccc(S(=N)(=O)CCCN(C)C)c1 (stereo not drawn) [Example 55C] | –
35 | 5 to 50 | CNCCCS(=N)(=O)c1cccc(NC(=O)c2c(Oc3ccc(F)cc3C)ncc(C(F)(F)F)c2C)c1 (stereo not drawn) [Example 56C] | –
36 | 5 to 50 | COc1cc(C#N)ccc1Oc1ncc(C(F)(F)F)c(C)c1C(=O)Nc1cccc([S@](=N)(=O)CCCO)c1 [Example 57C] | –
37 | 5 to 50 | COc1cc(C#N)ccc1Oc1ncc(C(F)(F)F)c(C)c1C(=O)Nc1cccc([S@@](=N)(=O)CCCO)c1 [Example 58C] | –
38 | 5 to 50 | COc1cc(C#N)ccc1Oc1ncc(C(F)(F)F)c(C)c1C(=O)Nc1cccc(S(=N)(=O)CCCN(C)C)c1 (stereo not drawn) [Example 59C] | –
39 | < 5 | CNCCCS(=N)(=O)c1cccc(NC(=O)c2c(Oc3ccc(C#N)cc3OC)ncc(C(F)(F)F)c2C)c1 (stereo not drawn) [Example 60C] | –

Reference: patent US20260356804A1, “SODIUM CHANNEL BLOCKING COMPOUNDS, DERIVATIVES THEREOF, AND METHODS OF THEIR USE” (LATIGO BIOTHERAPEUTICS, INC., priority 2022, published 2026)
